This note sets out measurements from publication PMC7044277 (Nature Communications, 2020).

Common to all, as to format: cell-based
Holding throughout (parameters): GPCRome screening signal at PTGIR / GPCRome screening signal at PTH1R / GPCRome screening signal at PTH2R / GPCRome screening signal at QRFP / GPCRome screening signal at RXFP2 / GPCRome screening signal at RXFP3 / GPCRome screening signal at RXFP4 / GPCRome screening signal at S1PR2 / GPCRome screening signal at S1PR3 / GPCRome screening signal at S1PR4 / GPCRome screening signal at S1PR5 / GPCRome screening signal at SCTR / GPCRome screening signal at SSTR2 / GPCRome screening signal at SSSTR / GPCRome screening signal at SSTR4 / GPCRome screening signal at SSTR5 / GPCRome screening signal at SUCNR1 / GPCRome screening signal at TA1 / GPCRome screening signal at TAAR2 / GPCRome screening signal at TAAR5 / GPCRome screening signal at TAAR6 / GPCRome screening signal at TAAR8 / GPCRome screening signal at TACR1 / GPCRome screening signal at TACR2 / GPCRome screening signal at TACR3 / GPCRome screening signal at TBXA2R / GPCRome screening signal at TSHR / GPCRome screening signal at UTS2R / GPCRome screening signal at VIPR2 / GPCRome screening signal at GPR68 no V2 Tail / GPCRome screening signal at GRM2 / GPCRome screening signal at GRM3: reference not given here

Assay [1] has as its target T1, 320 non-olfactory GPCRs (Homo sapiens, UniProt P21731).
T1 construct: expressed in transfected cells; host or cells: HTLA cells
To be noted: receptor TBXA2R.

For assay [2], the target named is T2, 320 non-olfactory GPCRs (Homo sapiens, UniProt Q9BXA5).
T2 construct: expressed in transfected cells; host or cells: HTLA cells
T2 sequence (Q9BXA5 whole entry): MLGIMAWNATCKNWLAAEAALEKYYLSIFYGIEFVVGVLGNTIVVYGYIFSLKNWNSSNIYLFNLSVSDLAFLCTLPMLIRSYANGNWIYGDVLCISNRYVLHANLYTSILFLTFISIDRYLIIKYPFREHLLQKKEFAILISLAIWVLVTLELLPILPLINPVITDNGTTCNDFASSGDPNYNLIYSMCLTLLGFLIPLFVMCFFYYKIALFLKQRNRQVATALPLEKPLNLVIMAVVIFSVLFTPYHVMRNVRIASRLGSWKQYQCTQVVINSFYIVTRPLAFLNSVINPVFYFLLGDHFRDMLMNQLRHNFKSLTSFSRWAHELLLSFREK
The following applies: receptor SUCNR1.

Assay [3] has as its target T3, 320 non-olfactory GPCRs (Homo sapiens, UniProt P32241).
T3 construct: expressed in transfected cells; host or cells: HTLA cells
The following applies: receptor VIPR1.

Assay [4] addresses T4, 320 non-olfactory GPCRs (Homo sapiens, UniProt O95136).
T4 construct: expressed in transfected cells; host or cells: HTLA cells
The following applies: receptor S1PR2.

The mark [5] stands for this setting: Fig_5f, single replicate values.

Values joined by “and” are separate entries in the source; they are usually repeats but may differ in a detail not shown here. Equal entries are not always repeated.
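Wherever GPCRome agonism screen response is given: fold over basal response of each receptor without drug.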

T1 sequence (P21731 whole entry): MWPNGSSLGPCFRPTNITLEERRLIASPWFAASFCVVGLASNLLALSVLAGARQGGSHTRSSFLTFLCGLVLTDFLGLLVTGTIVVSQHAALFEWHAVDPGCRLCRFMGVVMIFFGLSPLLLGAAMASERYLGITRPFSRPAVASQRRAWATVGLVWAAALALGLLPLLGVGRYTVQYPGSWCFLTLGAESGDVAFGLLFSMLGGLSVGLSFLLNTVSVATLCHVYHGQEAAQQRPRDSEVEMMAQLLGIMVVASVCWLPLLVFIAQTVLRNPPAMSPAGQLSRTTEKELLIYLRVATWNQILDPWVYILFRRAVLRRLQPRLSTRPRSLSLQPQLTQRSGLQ
T4 sequence (O95136 whole entry): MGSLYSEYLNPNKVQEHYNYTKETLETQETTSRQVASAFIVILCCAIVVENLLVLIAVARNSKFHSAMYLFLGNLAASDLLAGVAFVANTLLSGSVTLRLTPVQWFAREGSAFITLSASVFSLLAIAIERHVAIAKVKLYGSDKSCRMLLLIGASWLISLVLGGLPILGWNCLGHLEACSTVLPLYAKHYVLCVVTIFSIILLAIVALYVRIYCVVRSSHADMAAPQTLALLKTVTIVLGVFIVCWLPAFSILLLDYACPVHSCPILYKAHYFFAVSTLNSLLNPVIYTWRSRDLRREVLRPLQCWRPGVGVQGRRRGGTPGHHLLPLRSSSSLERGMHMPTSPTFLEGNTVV
T3 sequence (P32241 31-457): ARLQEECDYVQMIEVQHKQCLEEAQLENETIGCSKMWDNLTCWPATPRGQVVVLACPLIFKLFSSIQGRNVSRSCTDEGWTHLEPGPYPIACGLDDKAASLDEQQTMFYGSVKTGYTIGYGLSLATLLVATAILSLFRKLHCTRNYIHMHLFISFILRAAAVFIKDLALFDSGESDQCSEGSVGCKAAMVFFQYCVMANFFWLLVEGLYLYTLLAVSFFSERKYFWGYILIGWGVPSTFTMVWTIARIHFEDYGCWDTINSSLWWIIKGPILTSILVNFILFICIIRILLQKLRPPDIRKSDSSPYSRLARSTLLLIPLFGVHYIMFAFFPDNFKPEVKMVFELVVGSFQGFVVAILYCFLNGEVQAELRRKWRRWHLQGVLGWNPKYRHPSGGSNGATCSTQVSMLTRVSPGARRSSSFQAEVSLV

Turning to `CCOc1cccc2cc(C(C)NCC3(O)CCCCC3)oc12` (centres unmarked) [O4LE6], the “GPCRome agonism screen response” value on 320 non-olfactory GPCRs [1] (replicate values, Fig_4g) was 0.6818 and 0.496 and 0.4453 and 0.576; on 320 non-olfactory GPCRs [2] (replicate values, Fig_4g) it was 2.7145 and 1.744 and 1.03 and 1.189; at 320 non-olfactory GPCRs [3] (replicate values, Fig_4g) it was 0.8893 and 1.908 and 1.195 and 1.527; on 320 non-olfactory GPCRs [4] (replicate values, Fig_4g) it was 2.111 and 0.9213 and 3.313 and 1.2731.

Consider `CCOc1ccccc1CCC(C)NCC1(O)CCCCC1.Cl` (racemic) [Fig_5f], for which the “GPCRome screening signal at TBXA2R” value at 320 non-olfactory GPCRs [1] (setting [5]) is 1.076 and 0.505 and 0.6523 and 0.5698. In addition, the “GPCRome screening signal at SUCNR1” value at 320 non-olfactory GPCRs [2] (setting [5]) was 2.588 and 2.79 and 1.592 and 0.9771. The “GPCRome screening signal at VIPR1” value on 320 non-olfactory GPCRs [3] (setting [5]) is 1.328 and 1.861 and 1.314 and 1.467. Besides, at 320 non-olfactory GPCRs [4] (setting [5]), the “GPCRome screening signal at S1PR2” value was 2.447 and 1.17 and 1.142 and 1.029.
